Experimental data: patent publication US20260200921A1, “SUBSTITUTED AMINOPYRIDINE COMPOUNDS AS AKT INHIBITORS” (Atavistik Bio, Inc., priority 2023, published 2026)

What was measured:
[1] = biological target: T1, AKT1 E17K (Homo sapiens, UniProt P31749, E17K); assay: AKT1 E17K kinase assay (TR-FRET, Lance); format: biochemical; conditions: full-length human recombinant AKT1 E17K activated by PDPK1; Ulight-CREBtide substrate; either 50 μM ATP or 2 mM ATP
T1 construct: Purified human recombinant kinase full-length AKT1 E17K was expressed in insect cells; made in house; host or cells: insect cells
T1 sequence (P31749 whole entry E17K): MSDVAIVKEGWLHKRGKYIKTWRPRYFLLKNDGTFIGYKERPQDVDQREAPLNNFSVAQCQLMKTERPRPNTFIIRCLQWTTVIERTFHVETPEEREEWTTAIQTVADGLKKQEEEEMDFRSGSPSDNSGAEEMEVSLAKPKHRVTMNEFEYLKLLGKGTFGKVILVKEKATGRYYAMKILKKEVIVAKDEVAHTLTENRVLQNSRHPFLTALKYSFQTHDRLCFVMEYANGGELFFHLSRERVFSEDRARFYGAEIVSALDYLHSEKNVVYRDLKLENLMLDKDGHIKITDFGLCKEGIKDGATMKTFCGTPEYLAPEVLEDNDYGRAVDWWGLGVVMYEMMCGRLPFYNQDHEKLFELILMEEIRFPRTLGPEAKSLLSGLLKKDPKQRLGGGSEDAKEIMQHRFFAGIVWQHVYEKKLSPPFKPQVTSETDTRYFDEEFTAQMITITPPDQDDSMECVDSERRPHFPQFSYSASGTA
Experimental: AKT1 E17K kinase assay: Inhibitory effects of compounds on AKT1 E17K were undertaken in a 10-pt dose response kinase activity assay measuring phospho-peptide product formation based on TR-FRET signal as described in the following paragraph.
(§1) Purified human recombinant kinase full-length AKT1 E17K was expressed in insect cells and activated in vitro by PDPK1. Ulight™-CREBtide (PerkinElmer, catalog number TRF0107) was used as the peptide substrate. The reaction buffer consisted of 50 mM HEPES pH 7.5, 10 mM MgCl2, 0.01% Triton X-100, 0.01% BSA, 2 mM DTT, 0.6 nM AKT1 E17K, 50 nM Ulight™-CREBtide and either 50 μM ATP or 2 mM ATP. The compound solution was prepared as 10 mM DMSO stock. For the assay, a 1:3 serial dilution 10-pt dose response of test compounds, in duplicate, for each concentration were dispensed into a 384-well plate (Corning, catalog number 4513). Final DMSO concentration in the assay was 1%. The enzyme mixture (5 μL, 1.2 nM) were added and the mixture was incubated for 15 min at RT prior to the start of the kinase reaction by the addition of 5 μL substrate mixture (100 nM Ulight™-CREBtide). The reaction was stopped after 60 min of incubation at RT by the addition of 10 μL of Detection Mix (PerkinElmer, #CR97-100) consisting of Europium-anti-phospho-CREB (Ser133) (Perkin Elmer, catalog numberTRF0200). Incubation with the detection mix for a further 60 min allowed binding of antibody to the phospho-Ulight™ CREBtide. The fluorescence emissions at 620 nm and 665 nm after excitation at 350 nm was measured using Envision reader. The ratio of the emissions at 665 nm and at 620 nm provided the measure for the amount of phosphorylated CREBtide product of AKT1 E17K kinase activity. To determine the IC50 values, the data was normalized (enzyme reaction without inhibitor=0% inhibition, all other assay components but no enzyme=100% inhibition) and IC50 values were calculated by a 4-parameter fit using an in-house developed protocol.

[2] = biological target: T2, wildtype AKT1 (Homo sapiens, UniProt P31749); assay: AKT1 kinase assay, wildtype (TR-FRET, Lance); format: biochemical; conditions: full-length human recombinant wildtype AKT1 activated by PDPK1; Ulight-CREBtide substrate; either 50 μM ATP or 2 mM ATP
T2 construct: Purified human recombinant kinase full-length wildtype AKT1 was expressed in insect cells; made in house; host or cells: insect cells
T2 sequence (P31749 whole entry): as the sequence (P31749 whole entry E17K) above, with K17E counted along it
Experimental: AKT1 kinase assay: Inhibitory effects of compounds on wildtype AKT1 were undertaken in a 10-pt dose response kinase activity assay measuring phospho-peptide product formation based on TR-FRET signal as described in the following paragraph.
as §1, with “full-length wildtype” for “full-length”, “AKT1” for “AKT1 E17K”, “nM AKT1,” for “nM AKT1 E17K,”, “Mix (PerkinElmer.” for “Mix (PerkinElmer,”

SMILES	IC50 [1]	IC50 [2]
Nc1ncccc1-c1nc2ccc(-c3ccccc3)nc2n1-c1ccc(CNC(=O)c2ccc(-c3nn[nH]n3)cc2)cc1 [Compound I-20, N-(4-(2-(2-aminopyridin-3-yl)-5-phenyl-3H-imidazo[4,5-b]pyridin-3-yl)benzyl)-4-(2H-tetrazol-5-yl)benzamide]	< 50 nM	< 500 nM
Nc1ncccc1-c1nc2ccc(-c3ccccc3)nc2n1-c1ccc(CNC(=O)c2cccc(-c3nn[nH]n3)c2)cc1 [Compound I-21, N-(4-(2-(2-aminopyridin-3-yl)-5-phenyl-3H-imidazo[4,5-b]pyridin-3-yl)benzyl)-3-(2H-tetrazol-5-yl)benzamide]	50 to 200 nM	< 500 nM
Cc1cc(O)n(-c2ccc(C(=O)NCc3ccc(-n4c(-c5cccnc5N)nc5ccc(-c6ccccc6)nc54)nc3)cc2)n1 [Compound I-22, N-[[6-[2-(2-amino-3-pyridyl)-5-phenyl-imidazo[4,5-b]pyridin-3-yl]-3-pyridyl]methyl]-4-(5-hydroxy-3-methyl-pyrazol-1-yl)benzamide]	≥ 500 nM	> 500 nM
Cc1cc(O)n(-c2ccc(C(=O)NCc3ccc(-n4c(-c5cccnc5N)nc5cc(-c6ccccc6)cnc54)cc3)cc2)n1 [Compound I-23, N-(4-(2-(2-aminopyridin-3-yl)-6-phenyl-3H-imidazo[4,5-b]pyridin-3-yl)benzyl)-4-(5-hydroxy-3-methyl-1H-pyrazol-1-yl)benzamide]	≥ 500 nM	> 500 nM
Cc1cc(O)n(-c2ccc(C(=O)NCc3ccc(-n4c(-c5cccnc5N)nc5cc(-c6cccnc6)cnc54)cc3)cc2)n1 [Compound I-24, N-[[4-[2-(2-amino-3-pyridyl)-6-(3-pyridyl)imidazo[4,5-b]pyridin-3-yl]phenyl]methyl]-4-(5-hydroxy-3-methyl-pyrazol-1-yl)benzamide]	≥ 500 nM	< 500 nM
Cc1cc(O)n(-c2ccc(C(=O)N3CC(c4ccc(-n5c(-c6cccnc6N)nc6ccc(-c7ccccc7)nc65)cc4)C3)cc2)n1 [Compound I-25, (3-(4-(2-(2-aminopyridin-3-yl)-5-phenyl-3H-imidazo[4,5-b]pyridin-3-yl)phenyl)azetidin-1-yl)(4-(5-hydroxy-3-methyl-1H-pyrazol-1-yl)phenyl) methanone]	< 50 nM	< 500 nM
Nc1ncccc1-c1nc2ccc(-c3ccccc3)nc2n1-c1ccc(C2CN(C(=O)c3ccc(-c4nn[nH]n4)cc3)C2)cc1 [Compound I-26, (4-(2H-tetrazol-5-yl)phenyl)(3-(4-(2-(2-aminopyridin-3-yl)-5-phenyl-3H-imidazo[4,5-b]pyridin-3-yl)phenyl)azetidin-1-yl)methanone]	< 50 nM	< 500 nM
Nc1ncccc1-c1nc2ccc(-c3ccccc3)nc2n1-c1ccc(C2CN(C(=O)c3cccc(-c4nn[nH]n4)c3)C2)cc1 [Compound I-27, (3-(2H-tetrazol-5-yl)phenyl)(3-(4-(2-(2-aminopyridin-3-yl)-5-phenyl-3H-imidazo[4,5-b]pyridin-3-yl)phenyl)azetidin-1-yl)methanone]	50 to 200 nM	< 500 nM
Cc1cc(O)n(-c2ccc(C(=O)NCc3ccc(-n4c(-c5cccnc5N)nc5ccc(-c6ccccc6)cc54)cc3)cc2)n1 [Compound I-28, N-[[4-[2-(2-amino-3-pyridyl)-6-phenyl-benzimidazol-1-yl]phenyl]methyl]-4-(5-hydroxy-3-methyl-pyrazol-1-yl)benzamide]	≥ 500 nM	> 500 nM
Cn1ncc(-c2ccc(C(=O)NCc3ccc(-n4c(-c5cccnc5N)nc5ccc(-c6ccccc6)nc54)cc3)cc2)c1O [Compound I-29, N-[[4-[2-(2-amino-3-pyridyl)-5-phenyl-imidazo[4,5-b]pyridin-3-yl]phenyl]methyl]-4-(5-hydroxy-1-methyl-pyrazol-4-yl)benzamide]	≥ 500 nM	< 500 nM
Cc1nc(NC(=O)[C@H]2CC[C@H](c3nsc(=O)[nH]3)CC2)ccc1-n1c(-c2cccnc2N)nc2ccc(-c3ccccc3)nc21 [Compound I-38, (1r,4r)-N-(5-(2-(2-aminopyridin-3-yl)-5-phenyl-3H-imidazo[4,5-b]pyridin-3-yl)-6-methylpyridin-2-yl)-4-(5-oxo-4,5-dihydro-1,2,4-thiadiazol-3-yl)cyclohexane-1-carboxamide]	≥ 500 nM	< 500 nM
Cc1nc(NC(=O)[C@H]2CC[C@H](c3nn[nH]n3)CC2)ccc1-n1c(-c2cccnc2N)nc2ccc(-c3ccccc3)nc21 [Compound I-39, (1r,4r)-N-(5-(2-(2-aminopyridin-3-yl)-5-phenyl-3H-imidazo[4,5-b]pyridin-3-yl)-6-methylpyridin-2-yl)-4-(2H-tetrazol-5-yl)cyclohexane-1-carboxamide]	200 to 500 nM	< 500 nM
Cc1nc(NC(=O)c2cccc(-c3nsc(=O)[nH]3)c2)ccc1-n1c(-c2cccnc2N)nc2ccc(-c3ccccc3)nc21 [Compound I-40, N-(5-(2-(2-aminopyridin-3-yl)-5-phenyl-3H-imidazo[4,5-b]pyridin-3-yl)-6-methylpyridin-2-yl)-3-(5-oxo-4,5-dihydro-1,2,4-thiadiazol-3-yl)benzamide]	< 50 nM	< 500 nM
Nc1ncccc1-c1nc2ccc(-c3ccccc3)nc2n1-c1ccc(NC(=O)c2ccc(-c3nsc(=O)[nH]3)cc2F)nc1 [Compound I-41, N-(5-(2-(2-aminopyridin-3-yl)-5-phenyl-3H-imidazo[4,5-b]pyridin-3-yl)pyridin-2-yl)-2-fluoro-4-(5-oxo-4,5-dihydro-1,2,4-thiadiazol-3-yl)benzamide]	50 to 200 nM	< 500 nM
Cc1nc(NC(=O)c2ccc(-c3nsc(=O)[nH]3)cc2)ccc1-n1c(-c2cccnc2N)nc2ccc(-c3ccccc3)nc21 [Compound I-42, N-(5-(2-(2-aminopyridin-3-yl)-5-phenyl-3H-imidazo[4,5-b]pyridin-3-yl)-6-methylpyridin-2-yl)-4-(5-oxo-4,5-dihydro-1,2,4-thiadiazol-3-yl)benzamide]	50 to 200 nM	< 500 nM
Nc1ncccc1-c1nc2ccc(-c3ccccc3)nc2n1-c1ccc(C2CN(C[C@H]3CC[C@H](c4nsc(=O)[nH]4)CC3)C2)cc1 [Compound I-43, 3-((1r,4r)-4-((3-(4-(2-(2-aminopyridin-3-yl)-5-phenyl-3H-imidazo[4,5-b]pyridin-3-yl)phenyl)azetidin-1-yl)methyl)cyclohexyl)-1,2,4-thiadiazol-5(4H)-one]	≥ 500 nM	< 500 nM
Nc1ncccc1-c1nc2ccc(-c3ccccc3)nc2n1-c1ccc(C2CN(C[C@H]3CC[C@@H](c4nsc(=O)[nH]4)CC3)C2)cc1 [Compound I-44, 3-((1s,4s)-4-((3-(4-(2-(2-aminopyridin-3-yl)-5-phenyl-3H-imidazo[4,5-b]pyridin-3-yl)phenyl)azetidin-1-yl)methyl)cyclohexyl)-1,2,4-thiadiazol-5(4H)-one]	≥ 500 nM	< 500 nM
